# Results taken from patent US10543159B2, “Hair papilla cell activator” (Ezaki Glico Co., Ltd., priority 2014, dated 2020).
# Assays:
# fibronectin = test: Quantitative PCR gene expression in follicle dermal papilla cells: fibronectin; format: cell-based, human; details: Example 3: 0.25% POs-Ca (R) or CaCl2 of equivalent calcium, DMEM, 37° C., 5 hours; Dunnett, n=6
# Description: (§2) (1) 500 μl of a special medium in which 4×10^4 cells/ml of follicle dermal papilla cells were suspended was dispensed into a type I collagen-coated 24-well cell culture plate (Corning), and cultured at a cell density of 1.0×10^4 cells/cm^2 at 37° C. for 42 hours. (2) (a) Water (control), (b) a 2.5% (w/v) aqueous solution of POs-Ca (R), and (c) a 0.457% aqueous solution of CaCl2 (having an equivalent amount of calcium to that of (b)) were prepared. Each of the solutions (a) to (c) was mixed with DMEM high glucose (Sigma, USA) at a ratio of 1:9. […]
# (§3) (6) 0.5 μl of each of cDNA solutions diluted 2-fold with water, 1 μl of a solution containing 4 μM of each of primers 1 and 2 for each of the genes shown in Table 2, 5 μl of SYBR Premix Ex Taq II (Takara), and 3.5 μl of water were added, and quantitative PCR was performed on each of the genes. […] Fluorescence intensity after each cycle was measured.
# (§4) (7) Using PGK1 and GAPDH as reference genes, a comparative analysis of expression levels was performed with the analysis software (Bio-Rad CFX Manager 3.0) included in CFX96Touch. Relative expression levels were calculated under the default conditions of the software.
# (§5) (8) The average value of calculated expression levels was determined for the six samples derived from the cells treated under the respective conditions, and defined as the expression level relative to the control.
# CSPG4 = test: Quantitative PCR gene expression in follicle dermal papilla cells: CSPG4; format: cell-based, human; details: Example 3: 0.25% POs-Ca (R) or CaCl2 of equivalent calcium, DMEM, 37° C., 5 hours; Dunnett, n=6
# Description: as §2, §3, §4, §5
# [1] = system: human follicle dermal papilla cells; test: Follicle dermal papilla cell proliferation, Cell Counting Kit-F cell count (Example 2); format: cell-based; details: concentration series of Table 1A, 3 days
# Description: A strain (Lot. 3092504.12) sold by PromoCell (Germany) was used as human follicle dermal papilla cells. The cells were cultured in a CO2 incubator at 37° C., using a special medium for follicle dermal papilla cells (PromoCell), unless otherwise indicated. Cell subculturing was performed as follows: cells were seeded at 5000 to 10000 cells/cm^2 in an uncoated dish, and when the cells reached subconfluent, they were treated with trypsin-EDTA (0.03%) and detached, and then re-seeded. […] The medium was replaced about once every 3 days.
# 1. The procedures (1) and (3) to (5) in Example 1 were performed in the same manner as described above. Solutions of the compositions shown in the following table were prepared in a concentration series starting from a 10% (w/v) aqueous solution of POs-Ca (R), a 12.9% (w/v) aqueous solution of G1P-Ca, a 1.84% (w/v) aqueous solution of CaCl2.2H2O, or a 10% (w/v) aqueous solution of POs-Na.
# 2. In place of the conditions ((6), (7) and (8)) in Example 1, Cell Counting Kit-F (Dojindo Molecular Technologies, Inc.) was added to each well in accordance with the manual, and the number of cells was counted.
# VEGF [2] = test: Expression rate of VEGF among acidic saccharide salts, quantitative PCR (Example 6); format: cell-based, human; details: Example 6: solutions (b)-(h) of b288 mixed 1:9 with DMEM, GAPDH reference, mean of 4 PCR assays, dihydrate
# Description: (§1) (1) 500 μl of a special medium in which 2×10^4 cells/ml of follicle dermal papilla cells were suspended was dispensed into a type I collagen-coated 24-well cell culture plate (Corning), and cultured at a cell density of 5×10^3 cells/cm^2 at 37° C. for 72 hours. […] Oji Cornstarch Co., Ltd.), (f) a 2.5% (w/v) aqueous solution of a phosphorylated oligosaccharide magnesium salt (POs-Mg; […] (3) Each of the solutions (a) to (c) was mixed with DMEM high glucose (Sigma, USA) at a ratio of 1:9. (4) Following the procedures (4) to (6) in Example 2, mRNA was extracted from the cells, cDNA was prepared, and then the expression levels of the VEGF, FGF-7, and GAPDH genes were quantified by quantitative PCR. (7) Using GAPDH as a reference gene, a comparative analysis of expression levels was performed with the analysis software (Bio-Rad CFX Manager 3.0) included in CFX96Touch. The expression levels were calculated under the default conditions of the software.
# FGF-7 = test: Expression rate of FGF-7 among acidic saccharide salts, quantitative PCR (Example 6); format: cell-based, human; details: Example 6: solutions (b)-(h) of b288 mixed 1:9 with DMEM, GAPDH reference, mean of 4 PCR assays, dihydrate
# Description: as §1
# VEGF [3] = test: Quantitative PCR gene expression in follicle dermal papilla cells: VEGF; format: cell-based, human; details: Example 3: 0.25% POs-Ca (R) or CaCl2 of equivalent calcium, DMEM, 37° C., 5 hours; Dunnett, n=6
# ALPL = test: Quantitative PCR gene expression in follicle dermal papilla cells: ALPL; format: cell-based, human; details: Example 3: 0.25% POs-Ca (R) or CaCl2 of equivalent calcium, DMEM, 37° C., 5 hours; Dunnett, n=6
# Description: as §2, §3, §4, §5
# tenascin C = test: Quantitative PCR gene expression in follicle dermal papilla cells: tenascin C; format: cell-based, human; details: Example 3: 0.25% POs-Ca (R) or CaCl2 of equivalent calcium, DMEM, 37° C., 5 hours; Dunnett, n=6
# Description: as §2, §3, §4, §5
# VEGFB = test: Quantitative PCR gene expression in follicle dermal papilla cells: VEGFB; format: cell-based, human; details: Example 3: 0.25% POs-Ca (R) or CaCl2 of equivalent calcium, DMEM, 37° C., 5 hours; Dunnett, n=6
# Description: as §2, §3, §4, §5
# [4] = system: human follicle dermal papilla cells; test: Follicle dermal papilla cell proliferation, WST-1 (Example 1); format: cell-based
# Description: A strain (Lot. 3092504.12) sold by PromoCell (Germany) was used as human follicle dermal papilla cells. The cells were cultured in a CO2 incubator at 37° C., using a special medium for follicle dermal papilla cells (PromoCell), unless otherwise indicated. Cell subculturing was performed as follows: cells were seeded at 5000 to 10000 cells/cm^2 in an uncoated dish, and when the cells reached subconfluent, they were treated with trypsin-EDTA (0.03%) and detached, and then re-seeded. The trypsin-EDTA treatment allows complete detachment of the cells by incubation at 37° C. for nearly 10 minutes, with a high survival rate. The medium was replaced about once every 3 days.
# (1) Human follicle dermal papilla cells were seeded in a 96-well collagen I-coated plate (BD Biocoat Collagen I 96-well clear plate) at 1.6×10^3 cells/well and cultured at 37° C. for 24 hours. Cells were not seeded in two wells on the plate for blanks.
# (2) Solutions of the compositions shown in the table were prepared in a concentration series starting from a 10% (w/v) aqueous solution of POs-Ca (R), a 1.84% (w/v) aqueous solution of CaCl2.2H2O, or a 12.9% (w/v) aqueous solution of G1P-Ca.
# (3) The above-described aqueous solutions and the special medium were mixed at a ratio of 1:9 to prepare media having five different concentrations for each calcium species with a final concentration of 1/10 shown in Table 1. The media in each of the columns of Table 1 have the same calcium concentration. […]
# (7) Absorbance at 440 nm was measured for each well, using a fluorescence microplate reader (Varioskan Flash 2.4; Thermo Fisher Scientific, US).
# (8) The value obtained by subtracting the absorbance of the blank wells from the absorbance of the well of the sample was defined as the value of the relative amount of cells of the sample in each well. The degree of cell proliferation relative to the control was calculated by dividing the value of the relative amount of cells in each well, by the average value of the relative amount of cells in the control medium.
# versican = test: Quantitative PCR gene expression in follicle dermal papilla cells: versican; format: cell-based, human; details: Example 3: 0.25% POs-Ca (R) or CaCl2 of equivalent calcium, DMEM, 37° C., 5 hours; Dunnett, n=6
# Description: as §2, §3, §4, §5
smiles,measurement,setting,value
"O.O.[Ca+2].[Cl-].[Cl-] [CaCl2, calcium chloride dihydrate]",expression of fibronectin gene compared to control,fibronectin,significantly decreased
same,expression of CSPG4 gene compared to control,CSPG4,significant increases in the expression of genes were not observed
same,number of cells compared to that without addition,[1],not observed
same,"VEGF, relative values of the expression levels based on the control as 1",VEGF [2],0.80
same,"VEGF, relative values of the expression levels based on the control as 1",VEGF [2]; listed as calcium chloride,either comparable to or below the control
same,"FGF7, relative values of the expression levels based on the control as 1",FGF-7,1.02
same,"FGF7, relative values of the expression levels based on the control as 1",FGF-7; listed as calcium chloride,either comparable to or below the control
same,expression of VEGF gene compared to control,VEGF [3],significant increases in the expression of genes were not observed
same,expression of ALPL gene compared to control,ALPL,significant increases in the expression of genes were not observed
same,expression of tenascin C gene compared to control,tenascin C,significant increases in the expression of genes were not observed
same,expression of VEGFB compared to control,VEGFB,significantly increased
same,proliferation rate tendency at low concentrations,"[4]; 0.0625% and 0.12% POs-Ca (R), 0.0115% and 0.023% calcium chloride",tended to decrease
same,increase of cell proliferation relative to the control,"[4]; 0.25% POs-Ca (R) or calcium chloride with equivalent calcium, 3 days, WST-1",5.6%
same,proliferation rate at high concentrations,"[4]; 0.5% and 1.0% POs-Ca (R), 0.092% and 0.184% calcium chloride",tended to increase
same,expression of versican gene compared to control,versican,significantly decreased
